Entries after “also recorded” stand apart in the source; their conditions may differ.
Key:
truncated CRBN (319-427) = truncated CRBN (319-427) (Homo sapiens (Human), UniProt Q96SW2); experiment: Fluorescence binding assay (fluorescence quenching), affinity to E3-CEREBLON (CRBN)-ubiquitin ligase; conditions: ubiquitination moiety, pH 6.5
Description: Fluorescence quenching end point measurements were performed in black polystyrene 384-plates on Tecan Safire monochromator reader with the following settings: excitation 280 nm; excitation bandwidth 10.0 nm; emission collection 340 nm; emission bandwidth 20.0 nm; high sensitivity flash mode; integration time 40 μS; delay 0 μm. All measurements were done in duplicates; GraphPad Prism 5.03 was used for data evaluation, curve fitting, plotting and determination of IC50 values.
Serial dilutions of each tested ligands were mixed with truncated CRBN (319-427) to a final volume of 25 μL in the assay buffer (20 mM sodium phosphate buffer, pH 6.5, with 150 mM sodium chloride). The final concentration of CRBN in all assay will be 5-10 μM with DMSO level at 4%. A control lanes were prepared with only tested ligands without the addition of CRBN, top up with assay buffer to 25 μL. Plates were incubated for 5 minutes and analyzed using the monochromator plate reader.
IC50 is the compound concentration that causes 50% quenching of the desired activity.

[1] = biological target: CRBN (truncated, residues 319-427) (Homo sapiens (Human), UniProt Q96SW2); experiment: NMR binding experiments (1H-15N HSQC titration); conditions: 15N-labeled CRBN, ligand to CRBN ratios 0, 0.5, 1.0 and 1.5, 25° C.
CRBN (truncated, residues 319-427), sequence (Q96SW2 319-427): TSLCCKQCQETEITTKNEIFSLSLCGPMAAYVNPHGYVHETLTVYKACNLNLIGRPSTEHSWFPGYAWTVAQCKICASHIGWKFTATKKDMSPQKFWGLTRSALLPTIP
Description: All the NMR experiments were carried out on a Bruker magnet with proton frequency of 600 MHz or 700 MHz equipped with a cryo-probe. The experiments were performed at 25° C. The ^1H-^15N HSQC spectrum was collected using a standard pulse from the pulse library (Topspin version 2.1). To test whether a developed CRBN binder interacts with CRBN, titration of the compound to ^15N-labeled CRBN was carried out. The ^1H-^15N HSQC spectra of mixtures in which ligand to CRBN ratios are 0, 0.5, 1.0 and 1.5 were collected and compared. The data were collected using Topspin (ver 2.1) provided with equipment. The data were processed with topspin (ver 2.1), NMRPipe (Delaglio et al. 1995) and visualized using NMRView (Johnson 2004). The truncated CRBN: residues 319-427 was used in the NMR experiments.

BRD4 = BRD4 (Homo sapiens (Human), UniProt O60885); experiment: Western blot analysis of BRD4 degradation in RAMOS cells; assay type: cell-based
Description: Ramos (ATCC, CRL-1596) cells cultured in Roswell Park Memorial Institute (RPMI) 1640 Medium supplemented with 10% Fetal bovine serum and 1% Penicillin-streptomycin at 37° C. in humidified atmosphere with 5% CO2. In 6-well plate, 1.2 million cells were treated with indicated PROTAC compounds at 0.1% final concentration (v/v) of DMSO for desired duration of time. Pelleted cells were lysed in RIPA buffer (1% Nonidet P-40, 0.5% sodium deoxycholate, 0.1% SDS in 1× Tris-buffered saline) supplemented with protease inhibitor cocktail, 0.5 U/μL Benzonase (Novagen) and 1 mM MgCl2. Lysates were incubated on ice for 10 minutes followed by 15 minutes' centrifugation at 15000×g at 4° C. Supernatant was collected and subjected to Bradford protein quantification assay. Heat-denatured lysates (50 μg total protein) were loaded on NuPAGE 3-8% Tris-Acetate SDS protein gels. Proteins were transferred to PVDF membrane using iBlot 2 Dry Blotting Device (Thermo Fisher Scientific) at 20V for 13 minutes. Membranes were processed using iBind Flex Western Device (Thermo Fisher Scientific) by following the manufacturer's guideline. Membranes were probed with anti-BRD4 (Cell Signaling, Cat. #13440S), anti-c-Myc (Cell Signaling, Cat. #5605S), anti-β-actin (Proteintech, Cat. #66009-1-lg) antibodies, and developed with anti-Rabbit IgG, HRP-linked F(ab′)2 fragment (from donkey) (GE Life Sciences, Cat. #NA-9340) or anti-mouse IgG, AP-linked Antibody (Cell Signaling Technologies, Cat. #7056S) secondary antibodies. Membranes were incubated with Amersham ECL Select Western Blotting Detection Reagent (GE life sciences, Cat. #RPN2235) and Immun-Star™ AP Chemiluminescence Kits (Biorad, Cat. #1705018), visualized under FluorChem system (Protein Simple).
The protocol was run at 4 different inhibitor concentrations: 5 μM, 1 μM, 0.3 μM, 0.1 μM, using neat DMSO as the negative control. The % BRD4 degradation in western blot analysis is graded as follows: • K: Protein degradation >70% • L: 40%≤protein degradation<70% • M: protein degradation<40%

truncated CRBN (319-427), sequence (Q96SW2 319-427): as above

| IC50 (truncated CRBN (319-427)) | % BRD4 degradation (BRD4; 0.1 μM) | % BRD4 degradation (BRD4; 0.3 μM) | % BRD4 degradation (BRD4; 1 μM) | % BRD4 degradation (BRD4; 5 μM) | Structure (SMILES) | binding to CRBN in HSQC titration experiments [1] |
| --- | --- | --- | --- | --- | --- | --- |
|  | M (protein degradation<40%) | L (40%≤protein degradation<70%) | L (40%≤protein degradation<70%) | K (Protein degradation >70%) | Cc1cc(NCCOCCOCCOCCOc2ccc(NC(=O)C[C@@H]3N=C(c4ccc(Cl)cc4)c4c(sc(C)c4C)-n4c(C)nnc43)cc2)ncc1-c1ccc2c(c1)CC(=O)N2 [Compound 148, (S)-2-(4-(4-chlorophenyl)-2,3,9-trimethyl-6H-thieno[3,2-f][1,2,4]triazolo[4,3-a][1,4]diazepin-6-yl)-N-(4-(2-(2-(2-(2-((4-methyl-5-(2-oxoindolin-5-yl)pyridin-2-yl)amino)ethoxy)ethoxy)ethoxy)ethoxy)phenyl)acetamide] |  |
|  | M (protein degradation<40%) | M (protein degradation<40%) | L (40%≤protein degradation<70%) | K (Protein degradation >70%) | Cc1cc(NCCOCCOCCOCCOc2ccc(NC(=O)C[C@@H]3N=C(c4ccc(Cl)cc4)c4c(sc(C)c4C)-n4c(C)nnc43)cc2)ncc1-c1cnc2c(c1)CC(=O)N2 [Compound 156, (S)-2-(4-(4-chlorophenyl)-2,3,9-trimethyl-6H-thieno[3,2-f][1,2,4]triazolo[4,3-a][1,4]diazepin-6-yl)-N-(4-(2-(2-(2-(2-((4-methyl-5-(2-oxo-2,3-dihydro-1H-pyrrolo[2,3-b]pyridin-5-yl)pyridin-2-yl)amino)ethoxy)ethoxy)ethoxy)ethoxy)phenyl)acetamide] |  |
| 100 to 300 µM |  |  |  |  | Nc1ncccc1-c1ccc2c(c1)CC(=O)N2 [Compound 045, 5-(2-aminopyridin-3-yl)indolin-2-one] | bind to protein CRBN; also recorded: clear binding |

Continued, compound first:

| Structure (SMILES) | IC50 (truncated CRBN (319-427)) | % BRD4 degradation (BRD4; 0.1 μM) | % BRD4 degradation (BRD4; 0.3 μM) | % BRD4 degradation (BRD4; 1 μM) | % BRD4 degradation (BRD4; 5 μM) | binding to CRBN in HSQC titration experiments [1] |
| --- | --- | --- | --- | --- | --- | --- |
| Nc1cc(-c2ccc3c(c2)NC(=O)C3)ccn1 [Compound 011, 6-(2-aminopyridin-4-yl)indolin-2-one] | 100 to 300 µM |  |  |  |  | bind to protein CRBN; also recorded: clear binding |
| Nc1ccc(-c2ccc3c(c2)NC(=O)C3)cn1 [Compound 013, 6-(6-aminopyridin-3-yl)indolin-2-one] | > 300 µM |  |  |  |  | bind to protein CRBN; also recorded: clear binding |
| Nc1cc(-c2ccc3c(c2)CC(=O)N3)ccn1 [Compound 040, 5-(2-aminopyridin-4-yl)indolin-2-one] | 100 to 300 µM |  |  |  |  | bind to protein CRBN; also recorded: clear binding |
| Nc1cnccc1-c1ccc2c(c1)NC(=O)C2 [Compound 012, 6-(3-aminopyridin-4-yl)indolin-2-one] | > 300 µM |  |  |  |  | bind to protein CRBN; also recorded: clear binding |

Source: patent publication US11542274B1, “Therapeutic compounds and methods of use thereof” (AGENCY FOR SCIENCE, TECHNOLOGY AND RESEARCH (A*STAR), priority 2019, dated 2023)
